Source: paper PMC11980595, “Pyruvate kinase directly generates GTP in glycolysis, supporting growth and contributing to guanosine toxicity” (mBio, 2025)

Legend:
Type in all cases: biochemical
[1] = molecular target: T1, B. subtilis pyruvate kinase (PK) (Bacillus subtilis, UniProt P80885); experiment: activation of initial velocity, lactate dehydrogenase-coupled assay; settings: activator at 1 mM; NDP varied, co-substrate PEP
T1 construct: gene pyk
T1 sequence (P80885 1-585): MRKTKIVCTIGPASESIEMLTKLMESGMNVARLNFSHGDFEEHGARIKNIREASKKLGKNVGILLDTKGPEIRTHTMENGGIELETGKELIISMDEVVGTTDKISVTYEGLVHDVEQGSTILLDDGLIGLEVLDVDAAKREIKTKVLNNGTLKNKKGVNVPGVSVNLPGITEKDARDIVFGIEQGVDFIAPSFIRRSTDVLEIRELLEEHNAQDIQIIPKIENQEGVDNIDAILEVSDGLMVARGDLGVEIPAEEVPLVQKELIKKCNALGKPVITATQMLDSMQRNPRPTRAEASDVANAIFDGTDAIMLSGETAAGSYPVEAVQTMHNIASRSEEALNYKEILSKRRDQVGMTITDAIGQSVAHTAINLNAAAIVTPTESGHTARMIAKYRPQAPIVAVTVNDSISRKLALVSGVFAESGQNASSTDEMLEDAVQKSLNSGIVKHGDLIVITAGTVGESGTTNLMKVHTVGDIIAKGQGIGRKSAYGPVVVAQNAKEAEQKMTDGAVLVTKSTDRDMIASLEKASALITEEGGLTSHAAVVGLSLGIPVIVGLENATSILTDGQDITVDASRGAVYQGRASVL

E. faecalis PK = molecular target: T2, E. faecalis PK (Enterococcus faecalis, UniProt Q836R2); experiment: pyruvate kinase activity assay, catalytic efficiency; settings: co-substrate PEP; only kcat/Km, in figure
T2 construct: gene pyk; construct and purification not described
T2 sequence (Q836R2 1-585): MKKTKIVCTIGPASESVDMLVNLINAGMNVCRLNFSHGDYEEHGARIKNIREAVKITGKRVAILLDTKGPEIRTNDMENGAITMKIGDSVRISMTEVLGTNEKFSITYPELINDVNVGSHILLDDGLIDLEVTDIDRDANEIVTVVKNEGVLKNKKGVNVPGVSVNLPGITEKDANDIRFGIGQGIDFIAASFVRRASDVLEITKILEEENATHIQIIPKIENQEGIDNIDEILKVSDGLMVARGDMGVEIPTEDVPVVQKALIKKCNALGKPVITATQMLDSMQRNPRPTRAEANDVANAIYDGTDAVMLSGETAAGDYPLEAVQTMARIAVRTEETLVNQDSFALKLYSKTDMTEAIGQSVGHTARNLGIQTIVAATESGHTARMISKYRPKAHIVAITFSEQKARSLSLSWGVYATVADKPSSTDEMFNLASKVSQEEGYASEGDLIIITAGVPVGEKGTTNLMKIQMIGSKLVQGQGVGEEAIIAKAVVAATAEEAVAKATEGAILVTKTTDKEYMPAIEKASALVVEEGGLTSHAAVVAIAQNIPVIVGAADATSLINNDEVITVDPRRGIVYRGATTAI

L. monocytogenes PK = molecular target: T3, L. monocytogenes PK (Listeria monocytogenes, UniProt Q8Y6W1); experiment: as above; settings: co-substrate PEP; only kcat/Km, in figure
T3 construct: gene pykA; construct and purification not described
T3 sequence (Q8Y6W1 1-585): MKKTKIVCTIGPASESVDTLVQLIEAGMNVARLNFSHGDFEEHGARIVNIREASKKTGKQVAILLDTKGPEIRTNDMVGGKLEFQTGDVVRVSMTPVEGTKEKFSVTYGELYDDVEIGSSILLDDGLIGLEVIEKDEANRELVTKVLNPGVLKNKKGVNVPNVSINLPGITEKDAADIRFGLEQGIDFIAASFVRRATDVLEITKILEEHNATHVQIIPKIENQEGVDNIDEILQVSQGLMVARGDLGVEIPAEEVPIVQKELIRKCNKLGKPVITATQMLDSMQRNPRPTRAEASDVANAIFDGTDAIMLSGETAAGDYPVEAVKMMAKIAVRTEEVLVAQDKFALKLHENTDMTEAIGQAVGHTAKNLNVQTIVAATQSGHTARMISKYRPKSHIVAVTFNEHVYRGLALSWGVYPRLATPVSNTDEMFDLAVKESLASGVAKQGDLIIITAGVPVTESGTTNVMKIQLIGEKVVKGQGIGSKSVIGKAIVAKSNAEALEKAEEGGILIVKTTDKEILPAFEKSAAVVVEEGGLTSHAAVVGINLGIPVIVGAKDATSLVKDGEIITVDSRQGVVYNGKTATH

Compound | activation of initial velocity, lactate dehydrogenase-coupled assay [1] | pyruvate kinase activity assay, catalytic efficiency (E. faecalis PK) | pyruvate kinase activity assay, catalytic efficiency (L. monocytogenes PK)
Nc1ncnc2c1ncn2[C@@H]1O[C@H](COP(=O)(O)O)[C@@H](O)[C@H]1O [AMP] | when AMP, a known activator of pyruvate kinase, was added, we observed a marked increase |  | 
Nc1nc2c(ncn2[C@@H]2O[C@H](COP(=O)(O)OP(=O)(O)O)[C@@H](O)[C@H]2O)c(=O)[nH]1 [GDP] |  | Enterococcus faecalis and Listeria monocytogenes also showed highest catalytic efficiencies on GDP | Enterococcus faecalis and Listeria monocytogenes also showed highest catalytic efficiencies on GDP
Nc1ncnc2c1ncn2[C@@H]1O[C@H](COP(=O)(O)OP(=O)(O)O)[C@@H](O)[C@H]1O [ADP] |  | E. faecalis PK is also able to use ADP with high efficiency | L. monocytogenes PK can use ADP and UDP but less efficiently than GDP
